From ChEMBL document CHEMBL4483862, “Open-source discovery of chemical leads for next-generation chemoprotective antimalarials” (2018)

Test system: Plasmodium berghei
Test: Luciferase/luciferin-expressing antifolate-resistant parasites were used to infect a culture of HepG2 cells that were pre-incubated with compounds. Infected hepatocytes emit light due to the luciferase reaction. Assay results are presented as the percent inhibition of light emission compared to control. […]
Assay type: functional
Conditions: sporozoite; for IC90: read-out: LUCIFERASE INFECTION ASSAY - IC90

Row | Structure (SMILES) | IC90 [µM] | further results
1 | O=C(NCc1ccco1)/C(=C/c1cccc(C(F)(F)F)c1)c1nc2ccccc2[nH]1 | 7.5 | IC50 (FFLUC_HILL_SLOPE 10.6, FFLUC_R_SQUARED 0.24, HEPG2TOX_HILL_SLOPE 4.32, HEPG2TOX_R_SQUARED 0.946, PBLUC_HILL_SLOPE 6.31, PBLUC_R_SQUARED 0.466, read-out: LUCIFERASE INFECTION ASSAY - IC50): 5.3 µM
2 | O=C(NCC(c1ccco1)N1CCCC1)c1ccc(Cl)c(S(=O)(=O)N2CCc3ccccc32)c1 (configuration not stated) | > 10 | IC50 (FFLUC_HILL_SLOPE 10.9, FFLUC_R_SQUARED 0.158, HEPG2TOX_HILL_SLOPE 3.24, HEPG2TOX_R_SQUARED 0.613, PBLUC_HILL_SLOPE 5.35, PBLUC_R_SQUARED 0.563, read-out: LUCIFERASE INFECTION ASSAY - IC50): 7.08 µM
3 | CC(=O)NC1=C(N(C)C2CCS(=O)(=O)C2)C(=O)c2ccccc2C1=O (configuration not stated) | > 10 | IC50 (FFLUC_HILL_SLOPE 10.5, FFLUC_R_SQUARED 0.371, PBLUC_HILL_SLOPE 1.29, PBLUC_R_SQUARED 0.482, read-out: LUCIFERASE INFECTION ASSAY - IC50): 5.96 µM
4 | CCNC(=O)Cc1ccc(NC(=O)c2csc(Br)c2)cc1 | > 10 | IC50 (FFLUC_HILL_SLOPE 10.6, FFLUC_R_SQUARED 0.0524, read-out: LUCIFERASE INFECTION ASSAY - IC50): > 10 µM
5 | N#Cc1ccc(S(=O)(=O)Nc2cc(C(F)(F)F)cc(C(F)(F)F)c2)c(Cl)c1 | 5.49 | IC50 (FFLUC_HILL_SLOPE 10.5, FFLUC_R_SQUARED 0.0508, HEPG2TOX_HILL_SLOPE 1.91, HEPG2TOX_R_SQUARED 0.922, PBLUC_HILL_SLOPE 2.28, PBLUC_R_SQUARED 0.661, read-out: LUCIFERASE INFECTION ASSAY - IC50): 2.09 µM
6 | O=C1C=CC(=O)N1c1cc(Cl)ccc1Cl | > 13.6 | IC50 (FFLUC_HILL_SLOPE 10.4, FFLUC_R_SQUARED 0.533, read-out: LUCIFERASE INFECTION ASSAY - IC50): > 13.6 µM
7 | O=S(=O)(Nc1cc(C(F)(F)F)cc(C(F)(F)F)c1)c1cc(C(F)(F)F)cc(C(F)(F)F)c1 | 4.66 | IC50 (FFLUC_HILL_SLOPE 10.6, FFLUC_R_SQUARED 0.544, PBLUC_HILL_SLOPE 1.62, PBLUC_R_SQUARED 0.523, read-out: LUCIFERASE INFECTION ASSAY - IC50): 1.2 µM
8 | O=C(Nc1nc2ccccn2c1C(=O)NC1CCCCC1)c1ccccc1Cl | 8.12 | IC50 (FFLUC_HILL_SLOPE 10.6, FFLUC_R_SQUARED 0.389, HEPG2TOX_HILL_SLOPE 7.19, HEPG2TOX_R_SQUARED 0.725, PBLUC_HILL_SLOPE 14.8, PBLUC_R_SQUARED 0.156, read-out: LUCIFERASE INFECTION ASSAY - IC50): 7 µM
9 | C=CCn1c(-c2ccccc2)cs/c1=N\Nc1ccc([N+](=O)[O-])cc1 | > 10 | IC50 (FFLUC_HILL_SLOPE 10.5, FFLUC_R_SQUARED 0.467, read-out: LUCIFERASE INFECTION ASSAY - IC50): > 10 µM
10 | CC(Sc1nc2ncccn2n1)C(=O)N1c2ccccc2CC1C (configuration not stated) | > 10 | IC50 (FFLUC_HILL_SLOPE 10.4, FFLUC_R_SQUARED 0.228, read-out: LUCIFERASE INFECTION ASSAY - IC50): > 10 µM
11 | COc1ccc(C(=O)Nc2cc(Cl)ccc2N2CCCCC2)cc1S(=O)(=O)N(C)OC | > 10 | IC50 (FFLUC_HILL_SLOPE 10.9, FFLUC_R_SQUARED 0.3, PBLUC_HILL_SLOPE 12.4, PBLUC_R_SQUARED 0.0122, read-out: LUCIFERASE INFECTION ASSAY - IC50): > 10 µM
12 | CC1C(=O)N(CC(O)COCc2ccccc2Cl)C(=O)N1c1ccccc1 (configuration not stated) | > 10 | IC50 (FFLUC_HILL_SLOPE 10.9, FFLUC_R_SQUARED 0.0106, read-out: LUCIFERASE INFECTION ASSAY - IC50): > 10 µM
13 | CCc1nn2c(=O)c(CC)c(C)[nH]c2c1-c1ccc(Cl)cc1 | > 10.4 | IC50 (FFLUC_HILL_SLOPE 10.5, FFLUC_R_SQUARED 0.352, PBLUC_HILL_SLOPE 13.5, PBLUC_R_SQUARED 0.435, read-out: LUCIFERASE INFECTION ASSAY - IC50): 8.92 µM
14 | CC(C)(C)c1nnc2sc(SCC(=O)NC(c3ccccc3)c3ccccc3)nn2c1=O | > 10 | IC50 (FFLUC_HILL_SLOPE 10.4, FFLUC_R_SQUARED 0.278, PBLUC_HILL_SLOPE 1.88, PBLUC_R_SQUARED 0.683, read-out: LUCIFERASE INFECTION ASSAY - IC50): 4.26 µM
15 | O=C(Nc1ccccc1C(=O)OCC(=O)N1c2ccccc2Sc2ccccc21)c1ccco1 | > 10 | IC50 (FFLUC_HILL_SLOPE 10.6, FFLUC_R_SQUARED 0.388, PBLUC_HILL_SLOPE 2.08, PBLUC_R_SQUARED 0.607, read-out: LUCIFERASE INFECTION ASSAY - IC50): 7.58 µM
16 | Cn1c(NCc2ccccc2)nc2cnc(Nc3ccc(OC(F)(F)F)cc3)cc21 | 3.61 | IC50 (FFLUC_HILL_SLOPE 10.9, FFLUC_R_SQUARED 0.015, PBLUC_HILL_SLOPE 2.54, PBLUC_R_SQUARED 0.635, read-out: LUCIFERASE INFECTION ASSAY - IC50): 1.52 µM

Row | Structure (SMILES) | IC90 [µM] | further results
17 | CCCCNC(=O)c1c(NC(=O)c2ccc(F)cc2F)nc2ccc(C)cn12 | 3.01 | IC50 (FFLUC_HILL_SLOPE 10.6, FFLUC_R_SQUARED 0.36, HEPG2TOX_HILL_SLOPE 2.09, HEPG2TOX_R_SQUARED 0.949, PBLUC_HILL_SLOPE 14.8, PBLUC_R_SQUARED 0.468, read-out: LUCIFERASE INFECTION ASSAY - IC50): 2.6 µM
18 | CC(C)(C)c1cc(C(=O)Nc2cccc(Cl)c2)n(Cc2ccc(Cl)cc2Cl)n1 | > 7.56 | IC50 (FFLUC_HILL_SLOPE 10.5, FFLUC_R_SQUARED 0.365, read-out: LUCIFERASE INFECTION ASSAY - IC50): > 7.56 µM
19 | O=C(CSCCS(=O)(=O)c1ccc(Cl)cc1)Nc1cc(C(F)(F)F)cc(C(F)(F)F)c1 | > 6.52 | IC50 (FFLUC_HILL_SLOPE 10.6, FFLUC_R_SQUARED 0.485, read-out: LUCIFERASE INFECTION ASSAY - IC50): > 6.52 µM
20 | O=c1c2ccccc2[nH]c2ccc(Oc3ncnc4ccsc34)cc12 | 0.558 | IC50 (FFLUC_HILL_SLOPE 10.4, FFLUC_R_SQUARED 0.538, PBLUC_HILL_SLOPE 5.72, PBLUC_R_SQUARED 0.733, read-out: LUCIFERASE INFECTION ASSAY - IC50): 0.38 µM
21 | O=C(Nc1ncc(Cc2cccc(Cl)c2Cl)s1)c1ccc(-n2cncn2)nc1 | > 10 | IC50 (FFLUC_HILL_SLOPE 10.4, FFLUC_R_SQUARED 0.281, HEPG2TOX_HILL_SLOPE 2.29, HEPG2TOX_R_SQUARED 0.935, PBLUC_HILL_SLOPE 1.7, PBLUC_R_SQUARED 0.542, read-out: LUCIFERASE INFECTION ASSAY - IC50): 3.51 µM
22 | CCCNC(=O)c1c(NC(=O)c2cc(F)ccc2F)nc2ccc(C)cn12 | 1.18 | IC50 (FFLUC_HILL_SLOPE 10.5, FFLUC_R_SQUARED 0.751, HEPG2TOX_HILL_SLOPE 1.41, HEPG2TOX_R_SQUARED 0.982, PBLUC_HILL_SLOPE 15, PBLUC_R_SQUARED 0.726, read-out: LUCIFERASE INFECTION ASSAY - IC50): 1.02 µM
23 | CCOC(=O)c1sc(SCc2ccccc2)c2c1CC(c1ccccc1)CC2=O (configuration not stated) | > 7.81 | IC50 (FFLUC_HILL_SLOPE 10.5, FFLUC_R_SQUARED 0.686, PBLUC_HILL_SLOPE 0.804, PBLUC_R_SQUARED 0.242, read-out: LUCIFERASE INFECTION ASSAY - IC50): > 7.81 µM
24 | COc1cccc(OC)c1C(=O)Nc1cc2c(c([N+](=O)[O-])c1C)C(C)(C)CC2(C)C | 6.98 | IC50 (FFLUC_HILL_SLOPE 10.9, FFLUC_R_SQUARED 0.163, HEPG2TOX_HILL_SLOPE 1.05, HEPG2TOX_R_SQUARED 0.731, PBLUC_HILL_SLOPE 1.82, PBLUC_R_SQUARED 0.597, read-out: LUCIFERASE INFECTION ASSAY - IC50): 2.09 µM
25 | FC(F)(F)c1ccccc1N/N=C/c1ccc(OCc2ccccc2)c(OCc2ccccc2)c1 | > 10 | IC50 (FFLUC_HILL_SLOPE 10.4, FFLUC_R_SQUARED 0.371, read-out: LUCIFERASE INFECTION ASSAY - IC50): > 10 µM
26 | Cc1ccc(C(=O)C(c2ccc(C)cc2)N2C(=O)NC(C)(c3ccccc3)C2=O)cc1 (configuration not stated) | > 10 | IC50 (FFLUC_HILL_SLOPE 10.4, FFLUC_R_SQUARED 0.468, read-out: LUCIFERASE INFECTION ASSAY - IC50): > 10 µM
27 | O=C1C(=O)N(CCc2ccccc2)c2c1cccc2C(F)(F)F | 5.96 | IC50 (FFLUC_HILL_SLOPE 10.6, FFLUC_R_SQUARED 0.162, HEPG2TOX_HILL_SLOPE 9.24, HEPG2TOX_R_SQUARED 0.771, PBLUC_HILL_SLOPE 5.11, PBLUC_R_SQUARED 0.647, read-out: LUCIFERASE INFECTION ASSAY - IC50): 3.88 µM
28 | COCCOc1ccc(C(F)(F)F)cc1NC(=O)COC(=O)c1ccc2[nH]c3c(c2c1)CCCC3 | > 10 | IC50 (FFLUC_HILL_SLOPE 10.4, FFLUC_R_SQUARED 0.848, HEPG2TOX_HILL_SLOPE 1.66, HEPG2TOX_R_SQUARED 0.868, PBLUC_HILL_SLOPE 2.48, PBLUC_R_SQUARED 0.755, read-out: LUCIFERASE INFECTION ASSAY - IC50): 4.17 µM
29 | c1ccc(CSc2ncc(-c3nnnn3-c3ccccc3)c(-c3ccccc3)n2)cc1 | > 7.81 | IC50 (FFLUC_HILL_SLOPE 10.9, FFLUC_R_SQUARED 0.438, read-out: LUCIFERASE INFECTION ASSAY - IC50): > 7.81 µM
30 | c1ccc(C2(c3ccccc3)CC2(c2ccccc2)c2ccccc2)cc1 | 8.97 | IC50 (FFLUC_HILL_SLOPE 10.4, FFLUC_R_SQUARED 0.239, PBLUC_HILL_SLOPE 23.3, PBLUC_R_SQUARED 0.151, read-out: LUCIFERASE INFECTION ASSAY - IC50): 8.16 µM
31 | CC1CCc2[nH]c3ccc(C(=O)Nc4ccccc4N4CCCCC4)cc3c2C1 (configuration not stated) | 0.818 | IC50 (FFLUC_HILL_SLOPE 10.4, FFLUC_R_SQUARED 0.246, PBLUC_HILL_SLOPE 2.51, PBLUC_R_SQUARED 0.903, read-out: LUCIFERASE INFECTION ASSAY - IC50): 0.341 µM
